# Calls of active or inactive are those of the source. The calls are words filed in the database; no cut-off is given here.
# Columns and labels:
# [1] = Hemolytic activity at horse Erythrocyte assessed as hemolysis; format: toxicity, cell-based, Equus caballus; conditions: horse erythrocytes
# Staphylococcus aureus [2] = assay: Antibacterial activity against methicillin-resistant Staphylococcus aureus ATCC 43300 incubated for 16 hrs under shaking condition by standard broth microdilution method; format: functional
# Pseudomonas aeruginosa [3] = assay: Antibacterial activity against Pseudomonas aeruginosa ATCC 27853 incubated for 16 hrs under shaking condition by standard broth microdilution method; format: functional
# [4] = Hemolytic activity at mouse Red blood cell assessed as hemolysis; format: toxicity, cell-based; conditions: erythrocyte
# Staphylococcus aureus [5] = assay: Antibacterial activity against Staphylococcus aureus NCTC 10788 incubated for 16 hrs under shaking condition by standard broth microdilution method; format: functional
# Escherichia coli [6] = assay: Antibacterial activity against Escherichia coli NCTC 10418 incubated for 16 hrs under shaking condition by standard broth microdilution method; format: functional
# Cell membrane [7] = assay: Disruption of cell membrane integrity in methicillin-resistant Staphylococcus aureus assessed as reduction in green to red fluorescence by STYO 9 and PI staining based confocal microscopy analysis; format: subcellular
# Cell membrane [8] = assay: Disruption of cell membrane integrity in Staphylococcus aureus assessed as reduction in green to red fluorescence by STYO 9 and PI staining based confocal microscopy analysis; format: subcellular
# Cell membrane [9] = assay: Induction of inner membrane disruption in Pseudomonas aeruginosa assessed as fluorescence intensity at 8 times MIC by DISC3-5 dye based fluorescence analysis; format: subcellular
# Cell membrane [10] = assay: Induction of inner membrane disruption in […] assessed as change in fluorescence intensity at 8 times MIC by DISC3-5 dye based fluorescence analysis; format: subcellular
# Cell membrane [11] = assay: Induction of cytoplasmic membrane depolarization in […] assessed as increase in fluorescence intensity by DISC3-5 dye based fluorescence analysis; format: subcellular
# Cell membrane [12] = assay: Induction of cytoplasmic membrane depolarization in […] assessed as change in fluorescence intensity by DISC3-5 dye based fluorescence analysis; format: subcellular
# Cell membrane [13] = assay: Induction of cytoplasmic membrane depolarization in Pseudomonas aeruginosa assessed as change in fluorescence intensity by DISC3-5 dye based fluorescence analysis; format: subcellular
# Cell membrane [14] = assay: Induction of cell membrane depolarization in Pseudomonas aeruginosa assessed as fluorescence intensity by DISC3-5 dye based fluorescence analysis; format: subcellular
# Escherichia coli [15] = assay: Antibacterial activity against Escherichia coli DC 29755 incubated for 16 hrs under shaking condition by standard broth microdilution method; format: functional
# Klebsiella pneumoniae = assay: Antibacterial activity against Klebsiella pneumoniae FK 16298 incubated for 16 hrs under shaking condition by standard broth microdilution method; format: functional
# Pseudomonas aeruginosa [16] = assay: Antibacterial activity against Pseudomonas aeruginosa TL 11004 incubated for 16 hrs under shaking condition by standard broth microdilution method; format: functional
# Cell membrane [17] = assay: Induction of outer membrane permeability in Pseudomonas aeruginosa assessed as fluorescence intensity by 1-N-Nphenylnaphthylamine fluorescent probe based analysis; format: subcellular
# Escherichia coli [18] = assay: Antibacterial activity against Escherichia coli CMCC 44102 incubated for 16 hrs under shaking condition by standard broth microdilution method; format: functional
# Pseudomonas aeruginosa [19] = assay: Antibacterial activity against Pseudomonas aeruginosa TL 11005 incubated for 16 hrs under shaking condition by standard broth microdilution method; format: functional
# Lipopolysaccharide (LPS) [20] = assay: Binding affinity to LPS (unknown origin) assessed as dissociation constant by MST analysis
# Escherichia coli [21] = assay: Antibacterial activity against Escherichia coli ATCC 25922 incubated for 16 hrs under shaking condition by standard broth microdilution method; format: functional
# Pseudomonas aeruginosa [22] = assay: Antibacterial activity against Pseudomonas aeruginosa TL 11001 incubated for 16 hrs under shaking condition by standard broth microdilution method; format: functional
# Lipid bilayer = assay: Disruption of membrane integrity in bacterial cell membrane mimic POPC/POPG LUVs assessed as calcein leakage measured for 30 mins by fluorescence based analysis
# Lipopolysaccharide (LPS) [23] = assay: Disaggregation of FITC-labeled Escherichia coli LPS assessed as fluorescence intensity at 0.01 uM measured for 30 mins relative to control
# Lipopolysaccharide (LPS) [24] = assay: Disaggregation of FITC-labeled Escherichia coli LPS assessed as fluorescence intensity at 0.1 uM measured for 30 mins relative to control
# Lipopolysaccharide (LPS) [25] = assay: Disaggregation of FITC-labeled Escherichia coli LPS assessed as change in fluorescence intensity measured for 30 mins; conditions: dose 0.1-10 µM
# Lipopolysaccharide (LPS) [26] = assay: Disaggregation of FITC-labeled Escherichia coli LPS assessed as fluorescence intensity at 1 uM measured for 30 mins relative to control
# Cell membrane [27] = assay: Disruption of cell membrane integrity in Staphylococcus aureus assessed as increase in red fluorescence intensity at 0.5 times MIC by STYO 9 and PI staining based confocal microscopy analysis; format: subcellular
# Escherichia coli [28] = assay: Antibacterial activity against Escherichia coli infected in skin wound infection ICR mouse model assessed as reduction in wound area at 20 ug measured after 7 days by photographic analysis; format: functional; set-up: scale not given: the % may be the effect or the level left; conditions: dose 20 µg; time 7 day
# Cell membrane [29] = assay: Disruption of cell membrane integrity in Escherichia coli assessed as increase in red fluorescence intensity at 0.5 times MIC by STYO 9 and PI staining based confocal microscopy analysis; format: subcellular
# Cell membrane [30] = assay: Induction of cytoplasmic membrane depolarization in Pseudomonas aeruginosa by DISC3-5 dye based fluorescence analysis; format: subcellular
# Lipopolysaccharide (LPS) [31] = assay: Binding affinity to LPS (unknown origin) at 4 microg/ml relative to control; conditions: dose 4.0 µg/ml
# Staphylococcus aureus [32] = assay: Antibacterial activity against Staphylococcus aureus incubated for 60 mins in presence of LPS; format: functional, organism-based
# Cell membrane [33] = assay: Induction of cytoplasmic membrane depolarization in Pseudomonas aeruginosa assessed as change in fluorescence intensity in protoplast by DISC3-5 dye based fluorescence analysis; format: subcellular
# Lipopolysaccharide (LPS) [34] = assay: Disaggregation of FITC-labeled Escherichia coli LPS assessed as change in fluorescence intensity at 0.01 to 100 uM measured for 30 mins; conditions: dose 0.01-100 µM
# Escherichia coli [35] = assay: Antibacterial activity against Escherichia coli infected in skin wound infection ICR mouse model assessed as wound scabbing at 40 ug measured after 3 days by photographic analysis; format: functional, organism-based; conditions: dose 40.0 µg, time 3.0 day
# Staphylococcus aureus [36] = assay: Antibacterial activity against Staphylococcus aureus incubated for 16 hrs under shaking condition in presence of LPS by standard broth microdilution method; format: functional, organism-based
# Escherichia coli [37] = assay: Antibacterial activity against Escherichia coli infected in skin wound infection ICR mouse model assessed as reduction in wound area at 40 ug measured after 7 days by photographic analysis; format: functional; set-up: scale not given: the % may be the effect or the level left; conditions: dose 40 µg; time 7 day
# Escherichia coli [38] = assay: Antibacterial activity against Escherichia coli infected in skin wound infection ICR mouse model assessed as wound scabbing at 20 ug measured after 5 days by photographic analysis; format: functional, organism-based; conditions: dose 20.0 µg, time 5.0 day
substance,measurement,setting,value
Ac-AAKILSKILKGALKVL-NH2,HC50,[1],442 µg/mL
same,MIC,Staphylococcus aureus [2],4 µg/mL
same,MIC,Pseudomonas aeruginosa [3],16 µg/mL
same,MHC,[4],442 µg/mL
same,MIC,Staphylococcus aureus [5],8 µg/mL
same,MIC,Escherichia coli [6],8 µg/mL
Ac-AARIFSRILFGALRVL-NH2,HC50,[1],110 µg/mL
same,MIC,Staphylococcus aureus [2],4 µg/mL
same,MIC,Pseudomonas aeruginosa [3],32 µg/mL
same,MHC,[4],110 µg/mL
same,MIC,Staphylococcus aureus [5],8 µg/mL
same,MIC,Escherichia coli [6],32 µg/mL
Ac-AARIFSRILRGALRVL-NH2,HC50,[1],179 µg/mL
same,MIC,Staphylococcus aureus [2],8 µg/mL
same,MIC,Pseudomonas aeruginosa [3],16 µg/mL
same,MHC,[4],179 µg/mL
same,MIC,Staphylococcus aureus [5],4 µg/mL
same,MIC,Escherichia coli [6],8 µg/mL
Ac-AARILSRILFGALRVL-NH2,HC50,[1],51.7 µg/mL
same,MIC,Staphylococcus aureus [2],8 µg/mL
same,MIC,Pseudomonas aeruginosa [3],32 µg/mL
same,MHC,[4],51.663 µg/mL
same,MIC,Staphylococcus aureus [5],8 µg/mL
same,MIC,Escherichia coli [6],32 µg/mL
Ac-AARILSRILRFALRVL-NH2,HC50,[1],34.2 µg/mL
same,MIC,Staphylococcus aureus [2],16 µg/mL
same,Activity,Cell membrane [7],Active
same,Activity,Cell membrane [8],Active
same,MIC,Pseudomonas aeruginosa [3],> 512 µg/mL
same,MHC,[4],34.197 µg/mL
same,Flu intensity,Cell membrane [9],2410
same,MIC,Staphylococcus aureus [5],32 µg/mL
same,Activity,Cell membrane [10],Active
same,MIC,Escherichia coli [6],> 512 µg/mL
Ac-AARILSRILRFFLRVL-NH2,HC50,[1],13.4 µg/mL
same,MIC,Staphylococcus aureus [2],128 µg/mL
same,MIC,Pseudomonas aeruginosa [3],> 512 µg/mL
same,MHC,[4],13.37 µg/mL
same,MIC,Staphylococcus aureus [5],128 µg/mL
same,MIC,Escherichia coli [6],256 µg/mL
Ac-AARILSRILRGALRVL-NH2,HC50,[1],403 µg/mL
same,MIC,Staphylococcus aureus [2],8 µg/mL
same,MIC,Pseudomonas aeruginosa [3],16 µg/mL
same,MHC,[4],403 µg/mL
same,MIC,Staphylococcus aureus [5],4 µg/mL
same,MIC,Escherichia coli [6],32 µg/mL
Ac-AARILSRILRRALRVL-NH2,HC50,[1],155 µg/mL
same,MIC,Staphylococcus aureus [2],16 µg/mL
same,Activity,Cell membrane [7],Active
same,Activity,Cell membrane [8],Active
same,MIC,Pseudomonas aeruginosa [3],8 µg/mL
same,Activity,Cell membrane [11],Active
same,MHC,[4],155 µg/mL
same,Flu intensity,Cell membrane [9],2300
same,MIC,Staphylococcus aureus [5],4 µg/mL
same,Activity,Cell membrane [12],Active
same,Activity,Cell membrane [10],Active
same,MIC,Escherichia coli [6],4 µg/mL
same,Activity,Cell membrane [13],Active
Ac-AARILSRILSGALRVL-NH2,HC50,[1],161 µg/mL
same,MIC,Staphylococcus aureus [2],4 µg/mL
same,MIC,Pseudomonas aeruginosa [3],64 µg/mL
same,Activity,Cell membrane [11],Active
same,MHC,[4],161 µg/mL
same,MIC,Staphylococcus aureus [5],4 µg/mL
same,MIC,Escherichia coli [6],16 µg/mL
Ac-AARIPSRILFFALVRL-NH2,HC50,[1],> 512 µg/mL
same,MIC,Staphylococcus aureus [2],16 µg/mL
same,MIC,Pseudomonas aeruginosa [3],> 512 µg/mL
same,Activity,Cell membrane [11],Active
same,MHC,[4],> 512 µg/mL
same,MIC,Staphylococcus aureus [5],16 µg/mL
same,MIC,Escherichia coli [6],64 µg/mL
Ac-AARIPSRILFGALRVL-NH2,HC50,[1],> 512 µg/mL
same,Flu intensity,Cell membrane [14],676
same,MIC,Staphylococcus aureus [2],128 µg/mL
same,MIC,Escherichia coli [15],128 µg/mL
same,MIC,Klebsiella pneumoniae,256 µg/mL
same,MIC,Pseudomonas aeruginosa [16],512 µg/mL
same,Flu intensity,Cell membrane [17],10000
same,MIC,Pseudomonas aeruginosa [3],256 µg/mL
same,MIC,Escherichia coli [18],128 µg/mL
same,MHC,[4],> 512 µg/mL
same,MIC,Pseudomonas aeruginosa [19],128 µg/mL
same,Kd,Lipopolysaccharide (LPS) [20],39.1 µM
same,MIC,Staphylococcus aureus [5],128 µg/mL
same,MIC,Escherichia coli [21],128 µg/mL
same,MIC,Pseudomonas aeruginosa [22],512 µg/mL
same,Activity,Lipid bilayer,50.1%
same,Activity,Cell membrane [12],Active
same,MIC,Escherichia coli [6],64 µg/mL
same,Activity,Cell membrane [13],Active
same,Flu intensity,Lipopolysaccharide (LPS) [23],-95
Ac-AARIPSRILFRALRVL-NH2,HC50,[1],> 512 µg/mL
same,MIC,Staphylococcus aureus [2],16 µg/mL
same,MIC,Pseudomonas aeruginosa [3],64 µg/mL
same,Activity,Cell membrane [11],Active
same,MHC,[4],> 512 µg/mL
same,MIC,Staphylococcus aureus [5],32 µg/mL
same,MIC,Escherichia coli [6],32 µg/mL
Ac-AARIPSRILKGALRVL-NH2,HC50,[1],> 512 µg/mL
same,MIC,Staphylococcus aureus [2],256 µg/mL
same,MIC,Pseudomonas aeruginosa [3],64 µg/mL
same,MHC,[4],> 512 µg/mL
same,MIC,Staphylococcus aureus [5],512 µg/mL
same,MIC,Escherichia coli [6],128 µg/mL
Ac-AARIPSRILRGALRVL-NH2,Flu intensity,Lipopolysaccharide (LPS) [24],21.5
same,HC50,[1],> 512 µg/mL
same,Flu intensity,Cell membrane [14],781
same,Activity,Lipopolysaccharide (LPS) [25],Dose-dependent-effect
same,MIC,Staphylococcus aureus [2],128 µg/mL
same,Flu intensity,Lipopolysaccharide (LPS) [26],195
same,Activity,Cell membrane [7],Active
same,Activity,Cell membrane [8],Active
same,Activity,Cell membrane [27],Active
same,MIC,Escherichia coli [15],64 µg/mL
same,MIC,Klebsiella pneumoniae,128 µg/mL
same,MIC,Pseudomonas aeruginosa [16],128 µg/mL
same,Flu intensity,Cell membrane [17],30000
same,Activity,Escherichia coli [28],32.5%
same,MIC,Pseudomonas aeruginosa [3],32 µg/mL
same,Activity,Cell membrane [29],Active
same,Activity,Cell membrane [30],Active
same,Activity,Lipopolysaccharide (LPS) [31],> 90%
same,MIC,Escherichia coli [18],32 µg/mL
same,MHC,[4],> 512 µg/mL
same,Activity,Staphylococcus aureus [32],Dose-dependent-effect
same,Activity,Cell membrane [33],Active
same,MIC,Pseudomonas aeruginosa [19],32 µg/mL
same,Kd,Lipopolysaccharide (LPS) [20],0.152 µM
same,MIC,Staphylococcus aureus [5],256 µg/mL
same,MIC,Escherichia coli [21],64 µg/mL
same,Activity,Lipopolysaccharide (LPS) [34],Active
same,MIC,Pseudomonas aeruginosa [22],512 µg/mL
same,Activity,Lipid bilayer,10%
same,Activity,Cell membrane [12],Active
same,Activity,Escherichia coli [35],Active
same,Activity,Staphylococcus aureus [36],Active
same,MIC,Escherichia coli [6],16 µg/mL
same,Activity,Escherichia coli [37],44.8%
same,Activity,Cell membrane [13],Active
same,Activity,Escherichia coli [38],Active

# Source: ChEMBL document CHEMBL6134824, “LPS-enriched interaction drives spectrum conversion in antimicrobial peptides: Design and optimization of AA16 derivatives for targeting gram-negative bacteria” (Eur J Med Chem, 2025)
